≈ marks a conversion by molar mass, not a printed value.

Consider one compound from patent US9173391B2, “Crystalline complexes of 4-hydroxy benzoic acid and selected pesticides” (BASF SE, priority 2009, dated 2015).

The series can be described thus: physchem. The conditions noted are these: water, thermodynamic from solid.

What is called solubility is the concentration that dissolves in the medium under given conditions. Read a high solubility as much dissolved substance. `C/C(=N\C#N)N(C)Cc1ccc(Cl)nc1` [crystalline acetamiprid, acetamiprid] came in with a solubility at 24 h of 2750 µg/mL (≈ 12.3 mM).
